Data as given in patent publication US20140179519A1, “N-THIO-ANTHRANILAMIDE COMPOUNDS AND THEIR USE AS PESTICIDES” (BASF SE, priority 2011, published 2014).

Columns and labels:
[1] = tested on: Orchid thrips (Dichromothrips corbetti); assay: CE.1 Orchid thrips floral-immersion test, comparison with comparative compounds; assay type: in vivo; conditions: for % activity (mortality of Orchid thrips in %, vs. untreated control): floral immersion, 72 hours after treatment
Protocol: (§1) The activity summarized in the tables hereinbelow are given as percentage of mortality in comparison with untreated control
Dichromothrips corbetti adults used for bioassay were obtained from a colony maintained continuously under laboratory conditions. For testing purposes, the test compound is diluted in a 1:1 mixture of acetone:water (vol:vol), plus 0.01% vol/vol Alkamuls® EL 620 surfactant.
Thrips potency of each compound was evaluated by using a floral-immersion technique. Plastic petri dishes were used as test arenas. All petals of individual, intact orchid flowers were dipped into treatment solution and allowed to dry. Treated flowers were placed into individual petri dishes along with about 20 adult thrips. The petri dishes were then covered with lids. All test arenas were held under continuous light and a temperature of about 28° C. for duration of the assay. After 3 days, the numbers of live thrips were counted on each flower, and along inner walls of each petri dish. The percent mortality was recorded 72 hours after treatment.

[2] = tested on: Rice green leafhopper (Nephotettix virescens); assay: CE.2 Rice green leafhopper spray test on rice seedlings, comparison with comparative compound; assay type: in vivo; conditions: for % activity (mortality of Rice green leafhopper in %, vs. untreated control): sprayed rice seedlings, after 72 hours
Protocol: as §1
Rice seedlings were cleaned and washed 24 hours before spraying. The active compounds were formulated in 50:50 acetone:water (vol:vol), and 0.1% vol/vol surfactant (EL 620) was added. Potted rice seedlings were sprayed with 5 ml test solution, air dried, placed in cages and inoculated with 10 adults. Treated rice plants were kept at about 28-29° C. and relative humidity of about 50-60%. Percent mortality was recorded after 72 hours.

[3] = percent mortality 72 hours after treatment

Row | Compound | % activity (mortality of Orchid thrips in %, vs. untreated control) ([1]; 10 ppm active ingredient) | % activity (mortality of Orchid thrips in %, vs. untreated control) ([1]; 100 ppm active ingredient) | % activity (mortality of Orchid thrips in %, vs. untreated control) ([1]; 300 ppm active ingredient) | activity against Orchid thrips in comparison with comparative compound CC-1 [1, 3] | activity against Orchid thrips in comparison with comparative compound CC-2 [1, 3] | % activity (mortality of Rice green leafhopper in %, vs. untreated control) ([2]; 100 ppm active ingredient) | % activity (mortality of Rice green leafhopper in %, vs. untreated control) ([2]; 300 ppm active ingredient) | % activity (mortality of Rice green leafhopper in %, vs. untreated control) ([2]; 500 ppm active ingredient) | activity against Rice green leafhopper in comparison with comparative compound CC-2 ([2]; percent mortality after 72 hours)
1 | Cc1cc(Cl)cc(C(=O)N=S(C)C)c1NC(=O)c1cc(C(F)F)nn1-c1ncccc1Cl [Compound 4] | 95% | 100% | 100% | superior activity |  |  |  |  | 
2 | Cc1cc(Cl)cc(C(=O)N=S(C(C)C)C(C)C)c1NC(=O)c1cc(C(F)F)nn1-c1ncccc1Cl [Compound 25] | 95% | 100% | 100% |  | superior activity | 50% | 100% | 100% | superior activity
